This is an account of results in ChEMBL document CHEMBL1201862, “PubChem BioAssay data set” (2004).

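1) Cells in 96-well plates. 2) Compound, 48 h, 5 concentrations. 3) Linear interpolation between surrounding doses. 4) Unreached endpoint = highest concentration. At the GI50, growth is halved.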 Activity calls are given as the source filed them. No stated cut-off is given here; in the data, active = GI50 up to about 1.1 µM and inactive = higher. Bounds are passed on as bounds.

Some test systems named below: SK-MEL-2; ACHN; OVCAR-5; EKVX; Hs-578T; KM12; MCF7; MDA-MB-435; SK-MEL-28; OVCAR-8; NCI-H23; RXF 393; Malme-3M; SNB-75; HCC 2998; UO-31; SN12C; A549; CAKI-1; BT-549.
What all share (test): NCI anticancer screen, dose series, 48 h

As for `O=C1NC(c2cccc(OCc3ccccc3)c2)Nc2ccccc21` (configuration not stated), the GI50 in the test on SK-MEL-2 was 1.67 µM (inactive); in the test on ACHN, 0.442 µM (active); in the test on OVCAR-5, 0.374 µM (active); in the test with EKVX, 0.339 µM (active); in the test on Hs-578T, 0.241 µM (active); in the test on KM12 it was 17.5 µM (inactive). Besides, the GI50 was 0.034 µM (active) in the test on MCF7; 0.023 µM (active) with MDA-MB-435; 0.309 µM (active) in the test on SK-MEL-28; 0.315 µM (active) in the test with OVCAR-8; 0.424 µM (active) in the test with NCI-H23; 0.11 µM (active) in the test with RXF 393. Moreover, the GI50 in the test on Malme-3M is 0.0897 µM (active); in the test with SNB-75 it was 0.0703 µM (active); in the test on HCC 2998 it was 0.243 µM (active); with UO-31 it was 4.55 µM (inactive); in the test with SN12C, 0.119 µM (active); in the test with A549, 0.13 µM (active). The GI50 in the test with CAKI-1 is 0.628 µM (active).
For `CNc1ncccc1Nc1cc(=O)n2c3cccnc3n(C)c2c1`, the GI50 in the test on ACHN, in the test with OVCAR-5, in the test with EKVX, with KM12, in the test on MCF7 and in the test with MDA-MB-435 was > 100 µM (inactive) each time. Further, the GI50 in the test with BT-549 was > 100 µM (inactive); with SK-MEL-28, > 100 µM (inactive); in the test with OVCAR-8, > 100 µM (inactive); in the test with NCI-H23 it was 74.6 µM (inactive); in the test with RXF 393, 20.6 µM (inactive); in the test with SNB-75, 24.9 µM (inactive). The GI50 is > 100 µM (inactive) in the test on HCC 2998, > 100 µM (inactive) in the test on UO-31, > 100 µM (inactive) with A549 and 94.6 µM (inactive) with CAKI-1.
On to `O=c1nc2ccc3sc4ccccc4c(=O)c3n2c(=O)[nH]1`, for which the GI50 is > 100 µM (inactive) in the test on ACHN; > 100 µM (inactive) with OVCAR-5; 11.7 µM (inactive) with EKVX; 19.4 µM (inactive) in the test on Hs-578T; > 100 µM (inactive) in the test with KM12; > 100 µM (inactive) with MCF7. The GI50 with MDA-MB-435, with SK-MEL-28, with OVCAR-8, with NCI-H23, in the test on RXF 393 and in the test with Malme-3M was > 100 µM (inactive) throughout. Moreover, the GI50 with SNB-75, in the test with HCC 2998, in the test on UO-31, in the test on SN12C, in the test on A549 and in the test with CAKI-1 was > 100 µM (inactive) each time.
Take `CNc1nc(=O)c(C#N)c(-c2ccc(C)cc2)s1`: the GI50 in the test on SK-MEL-2 was > 100 µM (inactive); with ACHN, > 100 µM (inactive); with OVCAR-5, > 100 µM (inactive); in the test with EKVX, 67.6 µM (inactive); in the test with KM12, > 100 µM (inactive); in the test with MCF7, > 100 µM (inactive). Besides, the GI50 in the test on MDA-MB-435, in the test on BT-549, with SK-MEL-28, in the test on OVCAR-8, with NCI-H23 and in the test on RXF 393 was > 100 µM (inactive) throughout. Besides, the GI50 in the test with Malme-3M, in the test on SNB-75, in the test with HCC 2998, in the test with UO-31, with SN12C and in the test on A549 was > 100 µM (inactive) in each case. Besides, in the test on CAKI-1, the GI50 was 35.6 µM (inactive).
For the compound `CN1CCN(c2n[nH]c(=O)c3c2nnn3Cc2ccccc2)CC1`, the GI50 in the test with SK-MEL-2, in the test on ACHN, in the test with EKVX, with KM12, with MCF7 and in the test with MDA-MB-435 was > 100 µM (inactive) each time. Also, the GI50 is 41.5 µM (inactive) in the test with BT-549; > 100 µM (inactive) in the test on SK-MEL-28; > 100 µM (inactive) in the test on OVCAR-8; > 100 µM (inactive) with NCI-H23; 86.7 µM (inactive) with RXF 393; > 100 µM (inactive) in the test with Malme-3M. For the same compound, the GI50 in the test on SNB-75 was > 100 µM (inactive); in the test on HCC 2998, > 100 µM (inactive); in the test with UO-31 it was 71.6 µM (inactive); in the test on SN12C it was 15.5 µM (inactive); in the test with A549, > 100 µM (inactive); with CAKI-1, > 100 µM (inactive).
Turning to `COC(=O)C1CCCCCCCCCCC12SCCCS2` (configuration not stated), the GI50 was 18.6 µM (inactive) in the test with SK-MEL-2; 19 µM (inactive) with ACHN; 16.8 µM (inactive) with OVCAR-5; 19.4 µM (inactive) in the test on EKVX; 30.4 µM (inactive) in the test with Hs-578T; 18.1 µM (inactive) in the test on KM12. For the same compound, the GI50 was 43.9 µM (inactive) in the test with MCF7; 16.4 µM (inactive) in the test on MDA-MB-435; 18.4 µM (inactive) in the test on SK-MEL-28; 23.4 µM (inactive) in the test with OVCAR-8; 34.8 µM (inactive) in the test with NCI-H23; 19 µM (inactive) in the test with RXF 393. The GI50 with Malme-3M is 20.3 µM (inactive); with SNB-75, 19.1 µM (inactive); with HCC 2998 it was 20.9 µM (inactive); with UO-31, 18.9 µM (inactive); with SN12C, 16.9 µM (inactive); in the test on A549 it was 17.4 µM (inactive). Further, the GI50 in the test with CAKI-1 is 26.3 µM (inactive).
With `O=C(/C=C/c1ccc(Cl)c(Cl)c1)CCN1CCN(CCC(=O)/C=C/c2ccc(Cl)c(Cl)c2)CC1`, the GI50 with SK-MEL-2 was 26.7 µM (inactive); with ACHN it was 16.9 µM (inactive); in the test with OVCAR-5 it was 19.2 µM (inactive); in the test on EKVX, 30.4 µM (inactive); with KM12, 12.5 µM (inactive); with MCF7, 4.04 µM (inactive). The GI50 in the test on MDA-MB-435 is 21.8 µM (inactive); in the test on BT-549, 24.1 µM (inactive); in the test on SK-MEL-28, 20.4 µM (inactive); in the test with OVCAR-8, 33.7 µM (inactive); with NCI-H23, > 10 µM (inactive); in the test on RXF 393 it was 20.2 µM (inactive). Also, the GI50 is 31.9 µM (inactive) in the test on SNB-75; 14.1 µM (inactive) in the test with HCC 2998; 16.8 µM (inactive) in the test on UO-31; 26.3 µM (inactive) in the test with SN12C; 30.2 µM (inactive) in the test on A549; 15.6 µM (inactive) with CAKI-1.
On to `Clc1ccc(C2=NCON=C2c2ccc(Cl)cc2)cc1`, for which the GI50 in the test with SK-MEL-2 was 19.9 µM (inactive); with ACHN, 19 µM (inactive); with OVCAR-5 it was 20.1 µM (inactive); in the test on EKVX it was 15.1 µM (inactive); with Hs-578T, 13.8 µM (inactive); in the test on KM12, 15.5 µM (inactive). The GI50 in the test on MCF7 was 25.6 µM (inactive); with BT-549 it was 19.5 µM (inactive); in the test with OVCAR-8, 25.6 µM (inactive); in the test on NCI-H23, 16.8 µM (inactive); with RXF 393, 18.7 µM (inactive); in the test on Malme-3M, 14.5 µM (inactive). The GI50 with SNB-75 was 24.8 µM (inactive); in the test on HCC 2998 it was 15.2 µM (inactive); in the test on UO-31 it was 15.7 µM (inactive); in the test with SN12C, 19 µM (inactive); in the test with A549, 31.3 µM (inactive); in the test with CAKI-1, 21.6 µM (inactive).
For the compound `O=CC12CCCN1CCC2`, the GI50 in the test on SK-MEL-2, in the test with ACHN, in the test with OVCAR-5, with EKVX, with MDA-MB-435 and in the test on BT-549 was > 100 µM (inactive) throughout. In addition, the GI50 in the test on SK-MEL-28, in the test on NCI-H23, with RXF 393, in the test with Malme-3M, in the test on HCC 2998 and in the test on UO-31 was > 100 µM (inactive) in each case. The GI50 in the test with SN12C, in the test with A549 and in the test with CAKI-1 was > 100 µM (inactive) in each case.
Consider `COc1cc(/C=c2/c3ccccc3n3c2cc(-c2ccccc2)[n+]3C)cc(OC)c1OC`, for which the GI50 in the test with SK-MEL-2 is 2.58 µM (inactive); with ACHN it was 4.07 µM (inactive); in the test on OVCAR-5 it was 4.85 µM (inactive); with EKVX, 5.15 µM (inactive); in the test on KM12, 1.91 µM (inactive); with MCF7 it was 4.54 µM (inactive). Besides, the GI50 in the test with MDA-MB-435 is 2.51 µM (inactive); with BT-549, 3.78 µM (inactive); in the test on SK-MEL-28 it was 5.78 µM (inactive); in the test on OVCAR-8 it was 3.33 µM (inactive); in the test with NCI-H23 it was 3.94 µM (inactive); with RXF 393 it was 2.74 µM (inactive). Moreover, the GI50 in the test on Malme-3M was 2.19 µM (inactive); in the test on SNB-75 it was 4.01 µM (inactive); in the test on HCC 2998 it was 6.22 µM (inactive); in the test with UO-31 it was 5.12 µM (inactive); in the test on SN12C, 2.82 µM (inactive); with A549, 4.18 µM (inactive). In the test with CAKI-1, the GI50 is 3.92 µM (inactive).
On to `CC(=O)OC12c3ccccc3-c3ccccc3C1C1C(=O)N(C)C(=O)C12Cl` (configuration not stated), for which the GI50 with SK-MEL-2, in the test on ACHN, with OVCAR-5, in the test on EKVX, in the test with Hs-578T and in the test with KM12 was > 10 µM (inactive) in each case. The GI50 with MCF7, in the test on MDA-MB-435, in the test on SK-MEL-28, in the test with OVCAR-8, in the test on NCI-H23 and with RXF 393 was > 10 µM (inactive) throughout. The GI50 in the test on Malme-3M, in the test on SNB-75, in the test with HCC 2998, in the test with UO-31, with SN12C and in the test on CAKI-1 was > 10 µM (inactive) throughout.
